Results taken from ChEMBL document CHEMBL1201862, “PubChem BioAssay data set” (2004).
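The compound was tested at five concentrations on cells cultured in 96-well plates, with a 48-hour exposure period. GI50 is the concentration that inhibits growth by half.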 Activity calls are given as the source filed them. Rule as the data show it: active = GI50 up to about 1.1 µM and inactive = higher.

Legend:
Experiment in all cases: DTP human tumour cell line panel, 48 h
A498 = tested on: A498
A549 = tested on: A549
BT-549 = tested on: BT-549
CCRF-CEM = tested on: CCRF-CEM
HCC 2998 = tested on: HCC 2998
HOP-62 = tested on: HOP-62
HOP-92 = tested on: HOP-92
HT-29 = tested on: HT-29
IGROV-1 = tested on: IGROV-1
MDA-MB-231 = tested on: MDA-MB-231
MDA-N = tested on: MDA-N
SK-MEL-2 = tested on: SK-MEL-2
SK-MEL-5 = tested on: SK-MEL-5
SK-OV-3 = tested on: SK-OV-3
SNB-19 = tested on: SNB-19
TK-10 = tested on: TK-10
NCI-H522 = tested on: NCI-H522
T47D = tested on: T47D

| Structure (SMILES) | GI50 (A498) | GI50 (A549) | GI50 (BT-549) | GI50 (CCRF-CEM) | GI50 (HCC 2998) | GI50 (HOP-62) | GI50 (HOP-92) | GI50 (HT-29) | GI50 (IGROV-1) | GI50 (MDA-MB-231) | GI50 (MDA-N) | GI50 (SK-MEL-2) | GI50 (SK-MEL-5) | GI50 (SK-OV-3) | GI50 (SNB-19) | GI50 (TK-10) | GI50 (NCI-H522) | GI50 (T47D) |
| --- | --- | --- | --- | --- | --- | --- | --- | --- | --- | --- | --- | --- | --- | --- | --- | --- | --- | --- |
| CC(C)=CCC\C(C)=C/C=C/C(C)=C\C=C\C(C)=C/C=C/C=C(C)\C=C\C=C(C)/C=C/C=C(/C)CCC=C(C)C | > 100 µM (inactive) | > 100 µM (inactive) | > 100 µM (inactive) | > 100 µM (inactive) | > 100 µM (inactive) | > 100 µM (inactive) | > 100 µM (inactive) | > 100 µM (inactive) | > 100 µM (inactive) | > 100 µM (inactive) | > 100 µM (inactive) | > 100 µM (inactive) | > 100 µM (inactive) | > 100 µM (inactive) | > 100 µM (inactive) | > 100 µM (inactive) | – | – |
| CCN(CC)CCCNc1nc(=O)[nH]c(C)c1C(=O)Nc1c2ccccc2nc2ccccc12 | 5.22 µM (inactive) | 4.45 µM (inactive) | – | 5.68 µM (inactive) | 8.79 µM (inactive) | 24.8 µM (inactive) | 2.63 µM (inactive) | 7.41 µM (inactive) | 6.85 µM (inactive) | 12.9 µM (inactive) | 4.86 µM (inactive) | 20.8 µM (inactive) | 10.8 µM (inactive) | 10.8 µM (inactive) | 8.71 µM (inactive) | 17.1 µM (inactive) | 3.63 µM (inactive) | 10.7 µM (inactive) |
| ClCCN1CCOC1=C1C=CC=C1 | > 100 µM (inactive) | > 100 µM (inactive) | > 100 µM (inactive) | 80.4 µM (inactive) | – | 43.9 µM (inactive) | > 100 µM (inactive) | > 100 µM (inactive) | 14 µM (inactive) | > 100 µM (inactive) | – | – | > 100 µM (inactive) | > 100 µM (inactive) | > 100 µM (inactive) | – | – | > 100 µM (inactive) |
| COC1=CC(=O)c2c(cc(COP(N)(=O)N(CCBr)CCBr)n2C)C1=O (stereo unspecified) | 1.26 µM (inactive) | < 0.01 µM (active) | – | < 0.01 µM (active) | – | – | – | 0.012 µM (active) | 0.0188 µM (active) | 2.1 µM (inactive) | 0.242 µM (active) | 1.7 µM (inactive) | 0.418 µM (active) | 0.0137 µM (active) | 1.3 µM (inactive) | 0.484 µM (active) | < 0.01 µM (active) | < 0.01 µM (active) |
| C=C1C[C@]23CC[C@@H]4C(CO)(CO)CC(=O)C[C@]4(C)[C@@H]2C(O)C[C@H]1C3 (stereo partly specified) | – | > 100 µM (inactive) | > 100 µM (inactive) | > 100 µM (inactive) | > 100 µM (inactive) | > 100 µM (inactive) | > 100 µM (inactive) | > 100 µM (inactive) | > 100 µM (inactive) | > 100 µM (inactive) | > 100 µM (inactive) | > 100 µM (inactive) | – | > 100 µM (inactive) | > 100 µM (inactive) | > 100 µM (inactive) | > 100 µM (inactive) | – |
| CCOC(=O)c1cc(-c2ccc(OC)cc2)c([N+](=O)[O-])[nH]1 | > 10 µM (inactive) | > 10 µM (inactive) | > 10 µM (inactive) | > 10 µM (inactive) | > 10 µM (inactive) | > 10 µM (inactive) | > 10 µM (inactive) | > 10 µM (inactive) | > 10 µM (inactive) | 0.1 µM (active) | > 2.46 µM (inactive) | > 10 µM (inactive) | 7.67 µM (inactive) | > 10 µM (inactive) | > 10 µM (inactive) | > 10 µM (inactive) | 9.82 µM (inactive) | – |
| Cc1ccc(S(=O)(=O)NC(=O)NCC(N)=O)cc1 | – | > 100 µM (inactive) | > 100 µM (inactive) | > 100 µM (inactive) | – | > 100 µM (inactive) | > 100 µM (inactive) | > 100 µM (inactive) | > 100 µM (inactive) | > 100 µM (inactive) | > 100 µM (inactive) | > 100 µM (inactive) | > 100 µM (inactive) | > 100 µM (inactive) | > 100 µM (inactive) | > 100 µM (inactive) | > 100 µM (inactive) | > 100 µM (inactive) |
| CN(CCCNC(=O)c1cn(C)c2c1ccc1ccccc12)CCCNC(=O)c1cn(C)c2c1ccc1ccccc12 | 14.7 µM (inactive) | 1.35 µM (inactive) | – | 2.26 µM (inactive) | 1.41 µM (inactive) | 1.61 µM (inactive) | 1.42 µM (inactive) | 1.55 µM (inactive) | 1.11 µM (active) | – | 1.45 µM (inactive) | – | 1.65 µM (inactive) | – | 2.33 µM (inactive) | – | – | – |
| O=C(Nc1cnc(O)nc1O)C(Cl)Cl | > 100 µM (inactive) | > 100 µM (inactive) | – | > 100 µM (inactive) | > 100 µM (inactive) | > 100 µM (inactive) | > 100 µM (inactive) | > 100 µM (inactive) | > 100 µM (inactive) | > 100 µM (inactive) | > 100 µM (inactive) | > 100 µM (inactive) | > 100 µM (inactive) | > 100 µM (inactive) | > 100 µM (inactive) | > 100 µM (inactive) | > 100 µM (inactive) | > 100 µM (inactive) |
